Laboratory results as given in publication PMC8691714 (Cancer Research Communications, 2021).

What was measured:
[1] = In vivo pharmacokinetic study in mice, oral ibrutinib (plasma, LC-MS/MS); details: for AUC(0-t) / Cmax / bioavailability: plasma, po; for AUC(0-t): Ibrutinib AUC(0-last); for Cmax: Ibrutinib Cmax; for increase in ibrutinib AUC: male FVB wild-type mice; for systemic levels of ibrutinib: ibrutinib 10 mg/kg orally
Method: (§1) Experiments were performed with male and female mice from inbred wild-type strains (FVB, C57BL/6, DBA) or with age- and sex-matched genetically engineered mice with a deficiency of the Cyp3a locus [(8 genes; FVB.129P2-Cyp3a13^tm1Ahs Del (5Cyp3a57-Cyp3a59)1Ahs); ref. [16]; CYP3A^−/−], a deficiency of the intestinal transporter OATP2B1 (ref. [17]; OATP2B1 ^−/−), or the hepatic transporter OATP1B2 (ref. [18]; OATP1B2 ^−/−). […] The studies were approved by the University Laboratory Animal Resources Animal Care and Use Committee at The Ohio State University (Columbus, OH). […] For in vivo studies, drugs were prepared in standard vehicles ([19, 20]). Details regarding the preparation of drugs are provided in the Supplementary Methods.
(§2) Pharmacokinetic studies were performed as described previously ([21]). Further details are provided in the Supplementary Methods.
(§3) The lower limit of quantification was 5 ng/mL, using 5-μL sample volumes. Details regarding the analytic method are provided in the Supplementary Methods.
(§4) Ketoconazole was prepared for oral administration as a 10-mg/mL suspension in PEG400, and cobicistat as a 6-mg/mL suspension in corn oil.
(§5) Pharmacokinetic studies were performed as previously described.
The analytical equipment consisted of a Vanquish UHPLC system, a TSQ Quantum Ultra triple quadrupole mass spectrometer from Thermo Fisher Scientific, and Thermo Trace Finder General Quan system software (version 3.3). An Accucore Vanquish C18 column (100 × 2.1 mm, dp = 1.5 μm; Thermo Fisher Scientific) was protected by a corresponding XBridgeBEH C18, 5-μm guard column. The injection volume of sample was 5.0 μL. The temperature of the autosampler rack was 4 °C, and the temperature of the column was 40 °C. Mobile phase A consisted of water with 0.1% (v/v) formic acid and mobile phase B consisted of acetonitrile: methanol (1:3) with 0.1% (v/v) formic acid. The total run time was 5 min. The mobile phase was delivered at a flow rate of 0.4 mL/min, and the optimized gradient contained time-varying amounts of mobile phase B, as follows: 0-0.5 min, 10% B; 0.5-1.5 min, 95% B; 1.5-2.9 min, 95% B; 2.9-3.0 min, 10% B; and 3.0-5.0 min, 10% B. The mass spectrometric assay settings included a positive voltage applied to the ESI capillary of 3500 V, a capillary temperature of 342 °C, and a vaporizer temperature of 358 °C. Argon was used a collision gas at a pressure of 1.5 mTorr. […] For sample extraction by protein precipitation, 5 µL of plasma, 5 µL of microsomal suspension, or 10 µL of homogenized tissue were added to a tube containing 60 µL of internal standard solution and 20 µL of methanol. Samples were then vortex-mixed, centrifuged at 13,000 rpm for 9.5 min, and supernatants collected and stored frozen until analysis. […] The lower limit of quantification was 5 ng/mL, using 5-µL sample volumes.

[2] = population PK model estimate, mice
[3] = set-up: method as in earlier work; details: acid dissociation constant; PBPK model parameter; ref [17, 18] and Drugbank; cited from earlier work
[4] = set-up: method as in earlier work; details: unbound drug in the plasma; PBPK model parameter; ref [17, 18] and Drugbank; cited from earlier work
[5] = In vivo pharmacokinetic study in mice, intravenous ibrutinib (plasma); details: for AUC(0-t) / Cmax: female, FVB, mouse, plasma, iv, 1 mg/kg, ibrutinib 1 mg/kg IV, mean (SD); for AUC(0-t): Ibrutinib AUC(0-last); for Cmax: Ibrutinib Cmax
Method: as §1, §2, §3, §4, §5

[6] = female, C57BL/6, mouse, 10 mg/kg, female OATP2B1(-/-) mice, ibrutinib 10 mg/kg PO, no co-treatment, mean (SD)
[7] = female, C57BL/6, mouse, 10 mg/kg, female wild-type C57BL/6 mice, ibrutinib 10 mg/kg PO, no co-treatment, mean (SD)
[8] = female, DBA, mouse, 10 mg/kg, female OATP1B2(-/-) mice, ibrutinib 10 mg/kg PO, no co-treatment, mean (SD)
[9] = female, DBA, mouse, 10 mg/kg, female wild-type DBA mice, ibrutinib 10 mg/kg PO, no co-treatment, mean (SD)
[10] = female, FVB, mouse, 4 mg/kg, female wild-type FVB mice, ibrutinib 4 mg/kg oral, cotreatment cobicistat 30 mg/kg, mean (SE)
[11] = female, FVB, mouse, 10 mg/kg, female CYP3A-/- mice, ibrutinib 10 mg/kg oral, cotreatment cobicistat 30 mg/kg, mean (SE)
[12] = female, FVB, mouse, 10 mg/kg, female CYP3A-/- mice, ibrutinib 10 mg/kg oral, cotreatment corn oil, mean (SE)
[13] = female, FVB, mouse, 10 mg/kg, female CYP3A-/- mice, ibrutinib 10 mg/kg oral, no cotreatment, mean (SE)
[14] = female, FVB, mouse, 10 mg/kg, female wild-type FVB mice, ibrutinib 10 mg/kg oral single dose, cotreatment cobicistat 30 mg/kg, mean (SE)
[15] = female, FVB, mouse, 10 mg/kg, female wild-type FVB mice, ibrutinib 10 mg/kg oral single dose, cotreatment corn oil, mean (SE)
[16] = female, FVB, mouse, 10 mg/kg, female wild-type FVB mice, ibrutinib 10 mg/kg oral, cotreatment PEG400, mean (SE)
[17] = female, FVB, mouse, 10 mg/kg, female wild-type FVB mice, ibrutinib 10 mg/kg oral, cotreatment cobicistat 30 mg/kg, steady-state, mean (SE)
[18] = female, FVB, mouse, 10 mg/kg, female wild-type FVB mice, ibrutinib 10 mg/kg oral, cotreatment corn oil, steady-state, mean (SE)
[19] = female, FVB, mouse, 10 mg/kg, female wild-type FVB mice, ibrutinib 10 mg/kg oral, cotreatment ketoconazole 50 mg/kg, mean (SE)
[20] = female, FVB, mouse, 10 mg/kg, female wild-type FVB mice, ibrutinib 10 mg/kg oral, no cotreatment, mean (SE)
[21] = female, FVB, mouse, 30 mg/kg, female wild-type FVB mice, ibrutinib 30 mg/kg oral, no cotreatment, mean (SE)
[22] = male, C57BL/6, mouse, 10 mg/kg, male OATP2B1(-/-) mice, ibrutinib 10 mg/kg PO, no co-treatment, mean (SD)
[23] = male, C57BL/6, mouse, 10 mg/kg, male wild-type C57BL/6 mice, ibrutinib 10 mg/kg PO, no co-treatment, mean (SD)
[24] = male, FVB, mouse, 10 mg/kg, male wild-type FVB mice, ibrutinib 10 mg/kg PO, co-treatment No Vehicle (cobicistat experiment), mean (SD)
[25] = male, FVB, mouse, 10 mg/kg, male wild-type FVB mice, ibrutinib 10 mg/kg PO, co-treatment None (ketoconazole experiment), mean (SD)
[26] = male, FVB, mouse, 10 mg/kg, male wild-type FVB mice, ibrutinib 10 mg/kg PO, co-treatment PEG400, mean (SD)
[27] = male, FVB, mouse, 10 mg/kg, male wild-type FVB mice, ibrutinib 10 mg/kg PO, co-treatment cobicistat, mean (SD)
[28] = male, FVB, mouse, 10 mg/kg, male wild-type FVB mice, ibrutinib 10 mg/kg PO, co-treatment corn oil, mean (SD)
[29] = male, FVB, mouse, 10 mg/kg, male wild-type FVB mice, ibrutinib 10 mg/kg PO, co-treatment ketoconazole, mean (SD)
[30] = female CYP3A(-/-) mice, co-treatment cobicistat
[31] = female CYP3A(-/-) mice, co-treatment corn oil
[32] = female wild-type FVB mice, co-treatment cobicistat
[33] = female wild-type FVB mice, co-treatment corn oil

## C=CC(=O)N1CCC[C@@H](n2nc(-c3ccc(Oc4ccccc4)cc3)c3c(N)ncnc32)C1 [Ibrutinib]
[1]; CYP3A-/- mice compared with wild-type mice, oral ibrutinib
  ibrutinib AUC increase: about 8 fold
[1]; CYP3A-/- mice, oral ibrutinib, P > 0.05
  pharmacokinetic profile of ibrutinib with vs without cobicistat: similar
[1]; female wild-type mice, oral ibrutinib 10 mg/kg 30 minutes after oral ketoconazole 50 mg/kg vs vehicle
  increase in exposure to ibrutinib: about 11 fold
[1]; [6]
  AUC(0-t): 1750 ng·h/mL
  Cmax: 1250 ng/mL
[1]; [7]
  AUC(0-t): 1450 ng·h/mL
  Cmax: 1420 ng/mL
[1]; [8]
  AUC(0-t): 2100 ng·h/mL
  Cmax: 2170 ng/mL
[1]; [9]
  AUC(0-t): 2720 ng·h/mL
  Cmax: 1960 ng/mL
[1]; [10]
  AUC(0-t): 1200 ng·h/mL
  Cmax: 589 ng/mL
[1]; female, FVB, mouse, 4 mg/kg, female wild-type FVB mice, ibrutinib 4 mg/kg oral, cotreatment cobicistat 30 mg/kg
  bioavailability: 58%
[1]; [11]
  AUC(0-t): 1660 ng·h/mL
  Cmax: 845 ng/mL
[1]; [12]
  AUC(0-t): 1410 ng·h/mL
  Cmax: 1390 ng/mL
[1]; [13]
  AUC(0-t): 2350 ng·h/mL
  Cmax: 1760 ng/mL
[1]; [14]
  AUC(0-t): 2600 ng·h/mL
  Cmax: 1440 ng/mL
[1]; [15]
  AUC(0-t): 284 ng·h/mL
  Cmax: 292 ng/mL
[1]; [16]
  AUC(0-t): 768 ng·h/mL
  Cmax: 663 ng/mL
[1]; [17]
  AUC(0-t): 2250 ng·h/mL
  Cmax: 925 ng/mL
[1]; [18]
  AUC(0-t): 459 ng·h/mL
  Cmax: 394 ng/mL
[1]; [19]
  AUC(0-t): 8320 ng·h/mL
  Cmax: 3100 ng/mL
[1]; [20]
  AUC(0-t): 301 ng·h/mL
  Cmax: 430 ng/mL
[1]; female, FVB, mouse, 10 mg/kg, female CYP3A-/- mice, ibrutinib 10 mg/kg oral, cotreatment cobicistat 30 mg/kg
  bioavailability: 32%
[1]; female, FVB, mouse, 10 mg/kg, female CYP3A-/- mice, ibrutinib 10 mg/kg oral, cotreatment corn oil
  bioavailability: 27%
[1]; female, FVB, mouse, 10 mg/kg, female CYP3A-/- mice, ibrutinib 10 mg/kg oral, no cotreatment
  bioavailability: 45%
[1]; female, FVB, mouse, 10 mg/kg, female wild-type FVB mice, ibrutinib 10 mg/kg oral single dose, cotreatment cobicistat 30 mg/kg
  bioavailability: 50%
[1]; female, FVB, mouse, 10 mg/kg, female wild-type FVB mice, ibrutinib 10 mg/kg oral single dose, cotreatment corn oil
  bioavailability: 5.5%
[1]; female, FVB, mouse, 10 mg/kg, female wild-type FVB mice, ibrutinib 10 mg/kg oral, cotreatment cobicistat 30 mg/kg, steady-state
  bioavailability: 43%
[1]; female, FVB, mouse, 10 mg/kg, female wild-type FVB mice, ibrutinib 10 mg/kg oral, cotreatment corn oil, steady-state
  bioavailability: 8.8%
[1]; female, FVB, mouse, 10 mg/kg, female wild-type FVB mice, ibrutinib 10 mg/kg oral, no cotreatment
  bioavailability: 5.8%
[1]; [21]
  AUC(0-t): 1710 ng·h/mL
  Cmax: 554 ng/mL
[1]; female, FVB, mouse, 30 mg/kg, female wild-type FVB mice, ibrutinib 30 mg/kg oral, no cotreatment
  bioavailability: 11%
[1]; cobicistat
  increase in ibrutinib AUC: 7 fold
[1]; ketoconazole
  increase in ibrutinib AUC: 10 fold
[1]; [22]
  AUC(0-t): 1770 ng·h/mL
  Cmax: 1630 ng/mL
[1]; [23]
  AUC(0-t): 1390 ng·h/mL
  Cmax: 1380 ng/mL
[1]; [24]
  AUC(0-t): 520 ng·h/mL
  Cmax: 360 ng/mL
[1]; [25]
  AUC(0-t): 429 ng·h/mL
  Cmax: 404 ng/mL
[1]; [26]
  AUC(0-t): 636 ng·h/mL
  Cmax: 348 ng/mL
[1]; [27]
  AUC(0-t): 4340 ng·h/mL
  Cmax: 1360 ng/mL
[1]; [28]
  AUC(0-t): 663 ng·h/mL
  Cmax: 243 ng/mL
[1]; [29]
  AUC(0-t): 6640 ng·h/mL
  Cmax: 1260 ng/mL
[1]; mice lacking OATP1B2 vs wild-type
  systemic levels of ibrutinib: not altered
[1]; mice lacking OATP2B1 vs wild-type
  systemic levels of ibrutinib: not altered
[1]; wild-type mice, oral ibrutinib 10 mg/kg after cobicistat 30 mg/kg, single dose or steady-state (day 5)
  increase in exposure to ibrutinib: about 9 fold
[2]; inter-individual variability
  IIV Ka: 0.209
  IIV Lag: 0.0264
  IIV Vc: 0.167
  IIV Vp: 0.295
[2]
  Ka (absorption rate constant): 0.340 h⁻¹
  Lag (lag time): 0.0324 h
[2]; residual variability
  RV IBU: 0.425
[3]
  pKa: 3.78
[4]
  fu, plasma: 0.027
[5]; [30]
  AUC(0-t): 895 ng·h/mL
  Cmax: 1440 ng/mL
[5]; [31]
  AUC(0-t): 1170 ng·h/mL
  Cmax: 1860 ng/mL
[5]; [32]
  AUC(0-t): 1010 ng·h/mL
  Cmax: 1540 ng/mL
[5]; [33]
  AUC(0-t): 521 ng·h/mL
  Cmax: 1410 ng/mL
[5]; intravenous ibrutinib, CYP3A deficiency vs wild-type
  increase in ibrutinib exposure: 2 fold
[5]; intravenous ibrutinib, CYP3A-/- mice
  effect of cobicistat on exposure to ibrutinib: did not further increase exposure
[5]; intravenous ibrutinib, wild-type mice, oral cobicistat pretreatment vs vehicle
  increase in ibrutinib exposure: 2 fold
